From patent US12234233B2, “Crystal form of phosphodiesterase inhibitor, preparation method therefor and use thereof” (TRANSTHERA SCIENCES (NANJING), INC., priority 2019, dated 2025)

How the values were obtained:
[1] = Solubility in test solutions at different pHs and water; type: physicochemical; settings: 37° C.
Procedure: (§1) Test substances: the compound of formula (I) was prepared by example 1 of the present invention, the crystal form I was prepared by example 2 of the present invention, the crystal form II was prepared by example 16 of the present invention, the crystal form III was prepared by example 20 of the present invention, the crystal form IV was prepared by example 24 of the present invention, the crystal form V was prepared by example 25 of the present invention, the crystal form VI was prepared by example 27 of the present invention, and the crystal form VII was prepared by example 31 of the present invention.
Preparation of Buffered Salt Solutions at Different pHs:
hydrochloric acid solution at pH 1.0:9 ml of hydrochloric acid was pipetted, and water was added for dilution to 1000 ml; the mixture was mixed homogeneously to obtain a hydrochloric acid solution at pH 1.03. Phosphate buffered solution at pH 4.5:1.56 g of sodium dihydrogen phosphate dihydrate was weighed, and 200 ml of water was added to obtain a phosphate buffered solution at pH 4.50. Phosphate buffered solution at pH 6.8:1.56 g of sodium dihydrogen phosphate dihydrate was weighed, and 200 ml of water was added; and the mixture was adjusted to pH 6.80 with 1 mol/L sodium hydroxide solution.
preparation of buffered solutions at different pHs (samples for determining solubility):
50 mg of each test substance was weighed, and 5 ml of the hydrochloric acid solution (pH 1.0) was added; and the mixture was mixed homogeneously with shaking. About 2.5 mg of each test substance was weighed, and 5 ml of the phosphate buffered solution (pH 4.5), 5 ml of the phosphate buffered solution (pH 6.8), and 5 ml of ultrapure water were added, respectively; the mixture was mixed homogeneously with shaking, and then placed in a 37° C. water bath shaker for shaking; the samples were collected at 24 hours and subjected to centrifugation; and the supernatant was taken and directly injected (if the solubility was high, the supernatant was diluted with a 0.1 mol/L hydrochloric acid solution to an appropriate multiple and then injected).
The solubility of the samples was quantitatively calculated according to the single-point external standard method.

[2] = Pharmacokinetic evaluation in rats; type: in vivo, male SD rats
Procedure: Test substances: the compound of formula (I) was prepared by example 1 of the present invention, and the crystal form I was prepared by example 2 of the present invention.
Administration to Animals and Sample Collection:
(§2) the compound of formula (I) for the experiment was dissolved with 2% DMSO+10% PEG400+88% (28% HP-3-CD) physiological saline to prepare a solution; the solution of the test substance was administered to SD rats by gavage at a dose of 5.0 mg/kg; and the blood sampling time points were 15 min, 30 min, 1 h, 2 h, 4 h, 6 h, 8 h and 24 h after administration.
as §2, with “The compound” for “the compound”, “by intravenous bolus” for “by gavage”, “of 1” for “of 5.0”, “were 5 min,” for “were”
The crystal form I for the experiment was dissolved with 5% DMSO+10% PEG400+85% (20% captisol) physiological saline solution to prepare a solution; the solution of the test substance was administered to SD rats by gavage at a dose of 60.0 mg/kg; and the blood sampling time points were 15 min, 30 min, 1 h, 2 h, 4 h, 8 h, 24 h, 30 h and 48 h after administration.
The crystal form I for the experiment was dissolved with 2% DMSO+10% PEG400+88% (28% HP-β-CD) physiological saline to prepare a solution; the solution of the test substance was administered to SD rats by intravenous bolus at a dose of 5 mg/kg; and the blood sampling time points were 5 min, 15 min, 30 min, 1 h, 4 h, 8 h, 12 h and 24 h after administration.
Compound of formula (I): the ordinary SD rats were used and fixed; the tails of the rats were heated in a water bath 10 minutes before each time point; and about 100 μL of blood was collected via a tail vein, and then placed in an anticoagulation tube containing EDTA-K2. The blood sample was centrifuged at 8000 rpm at 4° C. for 6 min to obtain a plasma sample, which was prepared within 30 minutes after blood collection. The plasma was stored in a refrigerator at −80° C. before the test.
Crystal form I: the rats were subjected to jugular vein cannulation (JVC); each time, about 0.35 ml of blood was collected from the rats via a jugular vein cannula into a centrifuge tube containing 5 μl of 15% EDTA-K2; the mixture was gently mixed to obtain a homogeneous mixture, and then the centrifuge tube was placed in an ice bath immediately. Within 1 hour after collecting whole blood, the mixture was centrifuged at 4° C. and 2400×g for 5 minutes, and the supernatant was immediately collected to obtain a plasma sample. The plasma was stored in a refrigerator at −80° C. before the test.
the plasma sample to be tested was taken out from the −80° C. refrigerator, subjected to natural melting at room temperature, and then vortexed for 5 min; […] of the plasma sample was precisely pipetted into a 1.5 mL centrifuge tube; […] of the internal standard working solution (tolbutamide in methanol) at a concentration of 100 ng/mL was added, and the mixture was mixed homogeneously; the homogeneous mixture was vortexed for 5 min, and then centrifuged at 12000 rpm for 5 min; 50 μL of the supernatant was precisely pipetted into a 96-well plate pre-filled with 150 μL of water/well; and the plate was vortexed for 5 min for homogenization, and subjected to LC-MS/MS assay, with a sample loading volume of 5 μL. […]

[3] = Stability test of different crystal forms; type: physicochemical
Procedure: as §1, with “substances:” for “substances: the compound of formula (I) was prepared by example 1 of the present invention,”
Method: the appropriate amount of different test substances were taken, and placed at 105° C. for 3 days, and at 60° C. and RH 92.5% under light for 5 days and 10 days, respectively; and the samples were collected on day 0, day 3, day 5 and day 10 to investigate the changes in the trait and content of the samples.
Table 5 and Table 6 show the results of the trait and content after placement at 105° C. for 3 days. Table 7 and Table 8 show the results of the trait and content after placement at 60° C. and RH 92.5% under light for 5 days. Table 9 and Table 10 show the results of the trait and content after placement at RH 92.5% under light for 10 days.

[4] = pH 1.0 hydrochloric acid solution
[5] = pH 4.5 phosphate buffered solution
[6] = pH 6.8 phosphate buffered solution
[7] = male SD rats, intravenous bolus 1 mg/kg

| 24-hour solubility ([1]; Water) [µg/mL] | 24-hour solubility [1, 4] [µg/mL] | 24-hour solubility [1, 5] [µg/mL] | 24-hour solubility [1, 6] [µg/mL] | Content ([3]; 0 day) [%] | Trait ([3]; 0 day) | Content ([3]; Placed at 105° C. for 3 days) [%] | Trait ([3]; Placed at 105° C. for 3 days) | Content ([3]; Placed at RH 92.5% for 10 days) [%] | Trait ([3]; Placed at RH 92.5% for 10 days) | Content ([3]; Placed under light for 10 days) [%] | Trait ([3]; Placed under light for 10 days) | Content ([3]; Placed at 60° C. for 5 days) [%] | Content ([3]; Placed at RH 92.5% for 5 days) [%] | Content ([3]; Placed under light for 5 days) [%] | Compound | further results |
| --- | --- | --- | --- | --- | --- | --- | --- | --- | --- | --- | --- | --- | --- | --- | --- | --- |
| 140 | 1640 | 130 | 130 | 90.9 | Yellow powder |  |  | 90.8 | Yellow powder | 90.9 | Yellow powder |  |  |  | CCc1cc2c(N3CCC(C)(OC)CC3)c(C#N)c(=O)[nH]c2cn1 [Crystal form IV, 6-ethyl-4-(4-methoxy-4-methylpiperidin-1-yl)-2-oxo-1,2-dihydro-1,7-diazanaphthal ene-3-carbonitrile] |  |
| 330 | 4670 | 350 | 360 | 97.3 | Yellow powder |  |  | 97.4 | Yellow powder | 98.1 | Yellow powder |  |  |  | CCc1cc2c(N3CCC(C)(OC)CC3)c(C#N)c(=O)[nH]c2cn1 [Crystal form V, 6-ethyl-4-(4-methoxy-4-methylpiperidin-1-yl)-2-oxo-1,2-dihydro-1,7-diazanaphthal ene-3-carbonitrile] |  |
| 260 |  | 170 | 140 | 99.9 | Yellow powder | 99.7 | Yellow powder |  |  |  |  | 99.8 | 99.9 | 99.6 | CCc1cc2c(N3CCC(C)(OC)CC3)c(C#N)c(=O)[nH]c2cn1 [Crystal form VI, 6-ethyl-4-(4-methoxy-4-methylpiperidin-1-yl)-2-oxo-1,2-dihydro-1,7-diazanaphthal ene-3-carbonitrile] |  |
| 150 | 7550 | 140 | 130 | 100.0 |  |  |  |  |  |  |  | 99.9 | 100.0 | 99.6 | CCc1cc2c(N3CCC(C)(OC)CC3)c(C#N)c(=O)[nH]c2cn1 [Crystal form VII, 6-ethyl-4-(4-methoxy-4-methylpiperidin-1-yl)-2-oxo-1,2-dihydro-1,7-diazanaphthal ene-3-carbonitrile] |  |

More lines, now with the values behind:

| Compound | 24-hour solubility ([1]; Water) [µg/mL] | 24-hour solubility [1, 4] [µg/mL] | 24-hour solubility [1, 5] [µg/mL] | 24-hour solubility [1, 6] [µg/mL] | Content ([3]; 0 day) [%] | Trait ([3]; 0 day) | Content ([3]; Placed at 105° C. for 3 days) [%] | Trait ([3]; Placed at 105° C. for 3 days) | Content ([3]; Placed at RH 92.5% for 10 days) [%] | Trait ([3]; Placed at RH 92.5% for 10 days) | Content ([3]; Placed under light for 10 days) [%] | Trait ([3]; Placed under light for 10 days) | Content ([3]; Placed at 60° C. for 5 days) [%] | Content ([3]; Placed at RH 92.5% for 5 days) [%] | Content ([3]; Placed under light for 5 days) [%] | further results |
| --- | --- | --- | --- | --- | --- | --- | --- | --- | --- | --- | --- | --- | --- | --- | --- | --- |
| CCc1cc2c(N3CCC(C)(OC)CC3)c(C#N)c(=O)[nH]c2cn1 [Compound of formula (I), 6-ethyl-4-(4-methoxy-4-methylpiperidin-1-yl)-2-oxo-1,2-dihydro-1,7-diazanaphthal ene-3-carbonitrile] | 170 | 5270 | 160 | 160 |  |  |  |  |  |  |  |  |  |  |  | Tmax ([2]; Sprague-Dawley, rat, plasma, po, male SD rats, gavage 5.0 mg/kg): 30 min; pharmacokinetic characteristics ([2]; conclusion from Table 2, rats): excellent pharmacokinetic characteristics; AUClast PO/Dose ([2]; male SD rats, gavage 5.0 mg/kg): 387.2 h*ng/mL per mg/kg; tz1/2 PO ([2]; male SD rats, gavage 5.0 mg/kg): 2.68 h; AUClast iv/Dose [2, 7]: 748 h*ng/mL per mg/kg; Cl_obs iv [2, 7]: 24.2 mL/min/kg; Vz_obs iv [2, 7]: 2.13 L/kg; tz1/2 iv [2, 7]: 1.25 h |
| CCc1cc2c(N3CCC(C)(OC)CC3)c(C#N)c(=O)[nH]c2cn1 [Crystal form II, 6-ethyl-4-(4-methoxy-4-methylpiperidin-1-yl)-2-oxo-1,2-dihydro-1,7-diazanaphthal ene-3-carbonitrile] | 160 | 4540 | 160 | 140 | 99.8 | Yellow powder | 99.5 | Yellow powder | 99.8 | Yellow powder | 99.4 | Yellow powder |  |  |  |  |
| CCc1cc2c(N3CCC(C)(OC)CC3)c(C#N)c(=O)[nH]c2cn1 [Crystal form III, 6-ethyl-4-(4-methoxy-4-methylpiperidin-1-yl)-2-oxo-1,2-dihydro-1,7-diazanaphthal ene-3-carbonitrile] | 230 |  | 150 | 120 | 99.9 | Yellow powder | 99.7 | Yellow powder |  |  |  |  | 99.9 | 99.9 | 99.8 |  |
